According to US9850247B2 (Almac Discovery Limited, priority 2013, dated 2017):
Read-outs that look alike come from different tables or passages of the source.

Tests used:
[1] = test system: phospho-cdc2 (Tyr15) in HT-29 cells; test: Effect on Cdc2 phosphorylation at Tyr15, Cell-Based ELISA Base Kit (Method 3); details: eight hours incubation, normalized to total cdc2, read-out: HT29 pCDC2 method 3
Description: Method 3: Determining the Effect of Compounds on the Cdc2 phosphorylation at Tyr15, using a Cell-Based ELISA Base Kit (R&D Systems, KCB001)
The colorectal cancer cell line, HT-29 was purchased from the ATCC and maintained in McCoy's 5 A medium (Gibco®, Life technologies) supplemented with 10% Foetal Calf Serum (FCS).
The cells were trypsinised and counted, 100 μL of 8000 cells was seeded into each well of a clear-bottom black 96-well microplate and incubated overnight to allow adherence to the surface, at 37° C. and 5% CO2 in a cell culture incubator.
Test compounds were formulated in DMSO and diluted in cell culture medium supplemented with FCS. Grow medium was removed from cells and medium containing compounds dilutions was added to each well. The plate was returned to the incubator for an additional eight hours of incubation at 37° C. and 5% CO2.
Post incubation cells were fixed by replacing the compounds supplemented medium with 100 μL of 4% formaldehyde in 1× phosphate buffered saline (PBS), for 20 minutes at room temperature. Formaldehyde solution was removed and cells were washed three times with PBS. The Cell-Based ELISA assay (R&D Systems) was carried out immediately after cell fixation or the plate was sealed and fixed cells were stored in PBS at 4° C. until required (no more than two weeks).
To continue the assay, PBS was removed and cells were washed 3 times for 5 minutes with 200 μL of 1× wash buffer. Each wash step was carried out with gentle shaking. Following washes, 100 μL of 0.6% H2O2 in 1× wash buffer (quenching buffer) was added, plate was sealed and incubated for 20 minutes at room temperature. Post incubation cells were washes 3 times for 5 minutes with 200 μL of 1× wash buffer, with gentle shaking. 100 μL of blocking buffer was added to each well, the plate was re-sealed and incubated at room temperature for 1 h.
After blocking, cells were washed as described above. A primary antibody mixture was prepared by mixing the two primary antibodies, a rabbit monoclonal antibody for phospho-cdc2 (Tyr15) (Cell Signaling, #4539) and mouse monoclonal antibody for total cdc2 p34 (Santa Cruz Biotechnology, sc-54), diluted 1:25 and 1:50 in blocking buffer, respectively. 60 μL of primary antibody mixture was added to each well, the plate was sealed and incubated overnight at 4° C.
The primary antibodies were removed and cells were washed as previously described. 100 μL of secondary antibody mixture, containing horseradish-peroxidase (HRP)-conjugated goat anti-rabbit IgG and alkaline phosphatase (AP)-conjugated goat anti-mouse IgG, diluted 1:100 in blocking buffer, was added to each test well. The plate was re-sealed and incubated for 2 hours at room temperature.
The secondary antibodies were removed and cells washed 2 times with wash buffer, followed by 2 washes with PBS. Each wash step was carried out for 5 minutes with gentle shaking. PBS was removed and 75 μL of fluorogenic substrate for HRP (substrate F1) added to each well. The plate was sealed and incubated for 1 h at room temperature, in the dark. 75 μL of fluorogenic substrate for AP (substrate F2) was added directly to each well, plate re-sealed and incubated for additional 40 minutes at room temperature, protected from direct light.
Following incubation fluorescence from each well was read at 600 nm (signal from substrate 1, phosphorylated protein) and then at 450 nm (signal from substrate 2, total protein).
The percentage of phospho-cdc2 was calculated compared to DMSO control, normalized to the total cdc2 and plotted versus the concentration of inhibitor, using GraphPad Prism. Data was fitted using a non-linear regression analysis and EC50 values generated.

Wee-1 kinase = target: T1, Wee-1 kinase (Homo sapiens, UniProt P30291); test: Measurement of Wee-1 kinase activity (ADP-Glo luminescent kit); type: biochemical
T1 construct: purchased Invitrogen PV3817
How it was run: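 ADP-Glo luminescence reads ADP made over 1 h at RT, after an aliquot of 30 μM ATP and 2.0 μg/mL poly(Lys,Tyr 4:1) substrate. Before that, the kinase sat 30 min with inhibitor in Tris-HCl/MgCl2 buffer with BSA and DTT. IC50 came from regression of percent inhibition.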

[2] = CLint estimates using human liver microsomes (Method 4); type: in vitro ADME; details: pH 7.4, 1 μM compound, read-out: Mics - CLint (HLM CLint)
How it was run: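 Depletion measured by LC/MS/MS in MRM mode over 2–50 min after starting reactions with 1 mM NADPH. Incubations used 0.5 mg/mL human liver microsomal protein, 1 μM compound, 0.1% DMSO, pH 7.4 phosphate buffer, 37 °C. ln peak area plotted against time; the gradient gave t½ and intrinsic clearance.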

T1 sequence (P30291 whole entry): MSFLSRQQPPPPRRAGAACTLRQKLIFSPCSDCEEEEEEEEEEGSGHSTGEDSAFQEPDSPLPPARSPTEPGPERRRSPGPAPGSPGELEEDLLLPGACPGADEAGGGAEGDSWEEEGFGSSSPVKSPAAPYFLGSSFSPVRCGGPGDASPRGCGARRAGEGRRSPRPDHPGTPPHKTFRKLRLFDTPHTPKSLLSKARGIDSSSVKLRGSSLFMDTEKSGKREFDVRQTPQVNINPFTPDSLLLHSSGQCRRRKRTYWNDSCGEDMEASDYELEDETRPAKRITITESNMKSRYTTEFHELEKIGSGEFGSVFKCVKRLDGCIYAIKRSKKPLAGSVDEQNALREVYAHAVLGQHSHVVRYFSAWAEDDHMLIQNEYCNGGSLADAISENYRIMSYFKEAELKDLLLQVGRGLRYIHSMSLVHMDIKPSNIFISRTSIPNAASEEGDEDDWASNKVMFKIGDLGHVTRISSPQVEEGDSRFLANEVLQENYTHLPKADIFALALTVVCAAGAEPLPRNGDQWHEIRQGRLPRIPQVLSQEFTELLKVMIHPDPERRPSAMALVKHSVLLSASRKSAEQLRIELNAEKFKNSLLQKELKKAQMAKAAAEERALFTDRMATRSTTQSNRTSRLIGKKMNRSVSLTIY

Structure (SMILES)	IC50 (Wee-1 kinase)	microsomal CLint at 1 μM [2]	EC50 ([1]; Homo sapiens, HT-29, 8 h)	EC50 [1]
Cc1cc(Nc2ncc3c(n2)N(C)CN(c2c(Cl)cccc2Cl)C3=O)ccc1C1=CCNCC1 [Example 177, 3-(2,6-dichlorophenyl)-1-methyl-7-((3-methyl-4-(1,2,3,6-tetrahydropyridin-4-yl)phenyl)amino)-2,3-dihydropyrimido[4,5-d]pyrimidin-4(1H)-one]	≤ 10 nM	–	100 to 1000 nM	–
CN1CN(c2c(Cl)cccc2Cl)C(=O)c2cnc(Nc3ccc(N4CC5COCC(C4)N5)c(CO)c3)nc21 [Example 173, 7-((4-(3-oxa-7,9-diazabicyclo[3.3.1]nonan-7-yl)-3-(hydroxymethyl)phenyl)amino)-3-(2,6-dichlorophenyl)-1-methyl-2,3-dihydropyrimido[4,5-d]pyrimidin-4(1H)-one]	10 to 100 nM	–	100 to 1000 nM	–
CN1CN(c2c(Cl)cccc2Cl)C(=O)c2cnc(Nc3ccc4c(c3)C3CCC4N3C)nc21 (centres unmarked) [Example 175, 3-(2,6-dichlorophenyl)-1-methyl-7-((9-methyl-1,2,3,4-tetrahydro-1,4-epiminonaphthalen-6-yl)amino)-2,3-dihydropyrimido[4,5-d]pyrimidin-4(1H)-one]	≤ 10 nM	–	100 to 1000 nM	–
C[C@@H]1CN(c2ccc(Nc3ncc4c(n3)N(C)CN(c3ccccc3Cl)C4=O)cc2)C[C@H](C)N1 [Example 103, 3-(2-chlorophenyl)-7-((4-((3S,5R)-3,5-dimethylpiperazin-1-yl)phenyl)amino)-1-methyl-2,3-dihydropyrimido[4,5-d]pyrimidin-4(1H)-one]	10 to 100 nM	–	100 to 1000 nM	–
CNCc1cc(Nc2ncc3c(n2)N(C)CN(c2c(Cl)cccc2Cl)C3=O)ccc1-c1cnn(C)c1 [Example 160, 3-(2,6-dichlorophenyl)-1-methyl-7-((4-(1-methyl-1H-pyrazol-4-yl)-3-((methylamino)methyl)phenyl)amino)-2,3-dihydropyrimido[4,5-d]pyrimidin-4(1H)-one]	10 to 100 nM	–	≥ 1000 nM	–
CN1CN(c2c(Cl)cccc2Cl)C(=O)c2cnc(Nc3ccc(N4CCS(=O)(=O)CC4)cc3)nc21 [Example 42, 3-(2,6-dichlorophenyl)-7-((4-(1,1-dioxidothiomorpholino)phenyl)amino)-1-methyl-2,3-dihydropyrimido[4,5-d]pyrimidin-4(1H)-one]	10 to 100 nM	15 to 50 µL/min/mg	–	–
CN1CN(c2c(Cl)cccc2Cl)C(=O)c2cnc(Nc3ccc(N4CCN(C5CC5)CC4)cc3)nc21 [Example 115, 7-((4-(4-cyclopropylpiperazin-1-yl)phenyl)amino)-3-(2,6-dichlorophenyl)-1-methyl-2,3-dihydropyrimido[4,5-d]pyrimidin-4(1H)-one]	≥ 100 nM	15 to 50 µL/min/mg	–	–
CN1CN(c2c(Cl)cccc2Cl)C(=O)c2cnc(Nc3ccc(OC4CCNCC4)cc3)nc21 [Example 87, 3-(2,6-dichlorophenyl)-1-methyl-7-((4-(piperidin-4-yloxy)phenyl)amino)-2,3-dihydropyrimido[4,5-d]pyrimidin-4(1H)-one]	10 to 100 nM	≤ 15 µL/min/mg	–	–
COC[C@H]1CNCCN1c1ccc(Nc2ncc3c(n2)N(C)CN(c2c(Cl)cccc2Cl)C3=O)cc1 [Example 129, (R)-3-(2,6-dichlorophenyl)-7-((4-(2-(methoxymethyl)piperazin-1-yl)phenyl)amino)-1-methyl-2,3-dihydropyrimido[4,5-d]pyrimidin-4(1H)-one]	≤ 10 nM	≤ 15 µL/min/mg	–	–
CN1CN(c2c(Cl)cccc2Cl)C(=O)c2cnc(Nc3ccc(N4CCN(C)[C@H](CO)C4)cc3)nc21 [Example 49, (S)-3-(2,6-dichlorophenyl)-7-((4-(3-(hydroxymethyl)-4-methylpiperazin-1-yl)phenyl)amino)-1-methyl-2,3-dihydropyrimido[4,5-d]pyrimidin-4(1H)-one]	10 to 100 nM	15 to 50 µL/min/mg	–	–
Cc1cc(Nc2ncc3c(n2)N(C)CN(c2c(Cl)cccc2Cl)C3=O)ccc1N1C[C@@H]2C[C@H]1CN2 [Example 75, 7-((4-((1S,4S)-2,5-diazabicyclo[2.2.1]heptan-2-yl)-3-methylphenyl)amino)-3-(2,6-dichlorophenyl)-1-methyl-2,3-dihydropyrimido[4,5-d]pyrimidin-4(1H)-one]	≤ 10 nM	≤ 15 µL/min/mg	–	–
COC[C@@H]1CNCCN1c1ccc(Nc2ncc3c(n2)N(C)CN(c2c(Cl)cccc2Cl)C3=O)cc1 [Example 130, (S)-3-(2,6-dichlorophenyl)-7-((4-(2-(methoxymethyl)piperazin-1-yl)phenyl)amino)-1-methyl-2,3-dihydropyrimido[4,5-d]pyrimidin-4(1H)-one]	10 to 100 nM	15 to 50 µL/min/mg	–	–

The next lines start with results.

IC50 (Wee-1 kinase)	microsomal CLint at 1 μM [2]	Structure (SMILES)	EC50 ([1]; Homo sapiens, HT-29, 8 h)	EC50 [1]
≤ 10 nM	–	CN1CN(c2c(Cl)cccc2Cl)C(=O)c2cnc(Nc3ccc(N4C[C@@H]5C[C@H]4CN5C)c(CO)c3)nc21 [Example 176, 3-(2,6-dichlorophenyl)-7-((3-(hydroxymethyl)-4-((1S,4S)-5-methyl-2,5-diazabicyclo[2.2.1]heptan-2-yl)phenyl)amino)-1-methyl-2,3-dihydropyrimido[4,5-d]pyrimidin-4(1H)-one]	100 to 1000 nM	–
10 to 100 nM	–	CCNCc1cc(Nc2ncc3c(n2)N(C)CN(c2c(Cl)cccc2Cl)C3=O)ccc1N1CCOCC1 [Example 174, 3-(2,6-dichlorophenyl)-7-((3-((ethylamino)methyl)-4-morpholinophenyl)amino)-1-methyl-2,3-dihydropyrimido[4,5-d]pyrimidin-4(1H)-one]	≥ 1000 nM	–
≤ 10 nM	–	Cc1cc(Nc2ncc3c(n2)N(C)CN(c2c(Cl)cccc2Cl)C3=O)ccc1C1=CCN(C)CC1 [Example 178, 3-(2,6-dichlorophenyl)-1-methyl-7-((3-methyl-4-(1-methyl-1,2,3,6-tetrahydropyridin-4-yl)phenyl)amino)-2,3-dihydropyrimido[4,5-d]pyrimidin-4(1H)-one]	100 to 1000 nM	–
≤ 10 nM	–	CN1CN(c2c(Cl)cccc2Cl)C(=O)c2cnc(Nc3ccc(N4C[C@@H]5C[C@H]4CN5)c(CO)c3)nc21 [Example 164, 7-((4-((1S,4S)-2,5-diazabicyclo[2.2.1]heptan-2-yl)-3-(hydroxymethyl)phenyl)amino)-3-(2,6-dichlorophenyl)-1-methyl-2,3-dihydropyrimido[4,5-d]pyrimidin-4(1H)-one]	≥ 1000 nM	–
≤ 10 nM	–	CN1CN(c2c(Cl)cccc2Cl)C(=O)c2cnc(Nc3ccc(C4CCN(C5CCC5)CC4)c(CO)c3)nc21 [Example 181, 7-((4-(1-cyclobutylpiperidin-4-yl)-3-(hydroxymethyl)phenyl)amino)-3-(2,6-dichlorophenyl)-1-methyl-2,3-dihydropyrimido[4,5-d]pyrimidin-4(1H)-one]	100 to 1000 nM	–
≤ 10 nM	–	COC[C@H]1CN(c2ccc(Nc3ncc4c(n3)N(C)CN(c3c(Cl)cccc3Cl)C4=O)cc2C(O)C(F)F)CCN1 (single isomer, unassigned) [Example 163]	–	100 to 1000 nM
≤ 10 nM	–	O=C1c2cnc(Nc3ccc(N4CCNCC4)cc3)nc2N(c2ccccc2)CN1c1c(Cl)cccc1Cl [Example 171, 3-(2,6-dichlorophenyl)-1-phenyl-7-((4-(piperazin-1-yl)phenyl)amino)-2,3-dihydropyrimido[4,5-d]pyrimidin-4(1H)-one]	100 to 1000 nM	–
